Measured values taken from publication PMC11879692, “PDE4 inhibitor rolipram represses hedgehog signaling via ubiquitin-mediated proteolysis of GLI transcription factors to regress breast cancer” (The Journal of Biological Chemistry, 2025).
pIC50: −log10 of the molar value.

Tests used:
[1] = tested on: GLI1; assay: Immunohistochemistry of tumor tissue, GLI1; type: in vivo, BALB/c mice
Description: (§1) Solid tumors were developed in BALB/c mice (n = 3) except the control group (group I) by injecting 1 × 10^4 viable 4T1 (RRID: CVCL_0125) mice breast carcinoma cells (resuspended in 50 μl of PBS) into the inguinal fourth mammary fat pad, and the tumor was allowed to develop for 14 days ([37], [38]). Mice were randomly divided into three groups, viz., untreated tumor (group II), mice treated intraperitoneally with 1 mg//kg bodyweight of rolipram (group III), and mice receiving 5 mg/kg bodyweight of rolipram, intraperitoneally (group IV) ([39], [40]). After 14 days, the mice were sacrificed. Lung, kidney, liver, serum, and the tumors were collected for further experiments ([15]).
(§2) Mice mammary fat pad and mammary tumor tissues were processed as for histology, and 5 μm-thick sections were mounted on glass slides. The tissue sections were deparaffinized with xylene and hydrated with […] grades of alcohols (100% to 70%). Rehydrated sections were equilibrated in PBS. Antigen retrieval was performed by boiling the sections in a 0.1 M sodium citrate buffer (pH 6.0) for 10 min. […] The frequency (cell count) of positive and negative cells as well as the mean absorbance of the positive cells were plotted using MatPlotLib (RRID: SCR_008624), a Python (RRID: SCR_008394) 2D plotting library.

[2] = Bodyweight of tumor-bearing mice; type: in vivo, BALB/c mice; conditions: intraperitoneally
Description: as §1

[3] = tested on: MCF-7 cells; assay: Flow cytometric analysis of DNA content (PI); type: cell-based, human; conditions: MCF-7, IC50 dose, 24 h, vs control
Description: (§3) After treating the cells with rolipram for 24 h, cells were stained with PI (BD Pharmingen PI/RNase Staining Buffer; BD Biosciences; catalog no.: BD550825), following fixing of cells with 70% ethanol for 1 h at 4°C and permeabilization with 0.1% Triton X-100 (Sigma–Aldrich; catalog no.: X100). The cells were then analyzed using BD LSRFortessa flow cytometer (RRID: SCR_019600), and the data were analyzed using BD FACSDiva 9.0 software ([30]) (RRID: SCR_001456).

[4] = tested on: MDA-MB-231 cells; assay: Flow cytometric analysis of DNA content (PI); type: cell-based, human; conditions: MDA-MB-231, IC50 dose, 24 h, vs control
Description: as §3

[5] = tested on: PKA; assay: Immunohistochemistry of tumor tissue, PKA; type: in vivo, BALB/c mice
Description: as §1, §2

[6] = tested on: GLI2 and GLI3 in MDA-MB-231 cells; assay: Ubiquitination of GLI2 and GLI3 (HA-Ub transfection, immunoprecipitation, anti-HA blot); type: cell-based, human
Description: (§4) HA-Ubiquitin plasmid (Addgene; catalog no.: plasmid #18712, RRID: Addgene_18712) was transfected into MCF-7 and MDA-MB-231 cells using X-tremeGENE HP DNA Transfection Reagent (Roche; catalog no.: XTGHP-RO). Proteins were extracted from the untreated control cells and cells treated with rolipram for 24 h and were immunoprecipitated using antibodies raised against GLI2 and GLI3. The immunoprecipitation involved overnight incubation of protein and antibodies in Pierce Protein A/G Agarose (Thermo Scientific; catalog no.: 20421) at 4°C. Following immunoprecipitation, the precipitate was subjected to Western blot analysis using anti-HA antibodies (Cell Signaling Technology; catalog no.: 2367; RRID: AB_10691311) to observe ubiquitination of the desired proteins. Cells were cotreated with MG-132 (Sigma–Aldrich; catalog no.: M7449), a proteosomal blocker for ascertaining ubiquitination ([35]).

[7] = tested on: GLI2 and GLI3 in MCF-7 cells; assay: as above; type: cell-based, human
Description: as §4

[8] = tested on: MCF-7 cells; assay: MTT cell viability assay; type: cell-based; conditions: Homo sapiens, MCF7, 24 h, read-out: concentration for 50% growth inhibition (IC50)
Description: (§5) To determine the concentration of rolipram required for 50% growth inhibition (IC50) of MCF-7 and MDA-MB-231 cells, MTT (3-[4,5-dimethylthiazol-2-yl]-2,5 diphenyl tetrazolium bromide) assay, which relies on the reduction of MTT to form purple-colored formazan crystals by mitochondrial dehydrogenases, was performed ([27]). Cells were seeded in a 96-well plate at a density of 3 × 10^3 cells/well and treated with increasing concentrations of rolipram ranging from 1 to 80 μM. MTT (G Biosciences; catalog no.: RC1130) was added after 24 h of treatment, formazan crystals were dissolved in 100 μl of DMSO, and absorbance measured at 595 nm using the BioRad iMark Microplate Reader (RRID: SCR_023799). The percentage of metabolically active cells was calculated with respect to untreated control cells, negating the blank reading. Graphs were plotted for the percentages of viable cells against the concentrations of rolipram to obtain linear trend-line equations, which were used to derive the IC50 concentration of rolipram for each cell lines. The IC50 doses were used for all subsequent experiments ([28]).

[9] = tested on: MDA-MB-231 cells; assay: MTT cell viability assay; type: cell-based; conditions: Homo sapiens, 24 h, read-out: concentration for 50% growth inhibition (IC50)
Description: as §5

## COc1ccc(C2CNC(=O)C2)cc1OC1CCCC1 (centres unmarked) [rolipram, Rolipram]
[1]; 1 mg/kg bodyweight
  reduction of GLI1 expression in tumor tissue: twofold
[1]; 5 mg/kg bodyweight
  reduction of GLI1 expression in tumor tissue: sixfold
[2]; 1 mg/kg bodyweight
  bodyweight of tumor-bearing mice: No significant changes
[2]; 5 mg/kg bodyweight
  bodyweight of tumor-bearing mice: No significant changes
[3]
  G0/G1 cell population: significantly increased
[4]
  G0/G1 cell population: significantly increased
[5]; 1 mg/kg bodyweight
  increase of PKA-positive cells compared with tumor tissues: ~1.5 fold
[5]; 5 mg/kg bodyweight
  increase of PKA-positive cells compared with tumor tissues: ~1.5 fold
[6]; MDA-MB-231, IC50 dose
  ubiquitination of GLI2 and GLI3: ubiquitination of both proteins was also observed
[6]; MDA-MB-231, in the presence of H89
  ubiquitination of GLI2 and GLI3: not able to induce ubiquitination
[7]; MCF-7, IC50 dose, 6 h to 24 h
  ubiquitination of GLI2 and GLI3: significant ubiquitination
[7]; MCF-7, in the presence of H89
  ubiquitination of GLI2 and GLI3: not able to induce ubiquitination
[8]
  pIC50: 4.42
[9]
  pIC50: 4.28
